Data reported in article PMC11217295, “The immune response to RNA suppresses nucleic acid synthesis by limiting ribose 5-phosphate” (The EMBO Journal, 2024).

Target: Ribose 5-Phosphate Isomerase A (RPIA) (Homo sapiens, UniProt P49247)
Experiment: continuous spectrophotometric isomerase assay with recombinant RPIA
Type: biochemical
Set-up: recombinant Streptavidin-tagged human RPIA expressed in E. coli
Text: continuous spectrophotometric isomerase assay with recombinant RPIA on Ribose 5-Phosphate Isomerase A (RPIA) | validated its activity against the human isomerase in a continuous spectrophotometric assay.

Ribose 5-Phosphate Isomerase A (RPIA), sequence (P49247 whole entry): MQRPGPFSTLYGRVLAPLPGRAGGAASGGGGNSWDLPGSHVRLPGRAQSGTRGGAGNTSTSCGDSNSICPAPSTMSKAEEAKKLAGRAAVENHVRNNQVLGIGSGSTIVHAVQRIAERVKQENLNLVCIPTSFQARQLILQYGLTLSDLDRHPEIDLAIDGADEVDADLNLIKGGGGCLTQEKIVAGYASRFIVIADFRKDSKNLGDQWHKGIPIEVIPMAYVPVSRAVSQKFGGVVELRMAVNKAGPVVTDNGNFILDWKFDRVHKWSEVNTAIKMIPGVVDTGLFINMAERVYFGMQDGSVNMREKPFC

For `O=C(NO)[C@H](O)[C@H](O)COP(=O)(O)O` [JNB-hu20-057-2A], the “continuous spectrophotometric isomerase assay with recombinant RPIA” value was “validated its activity against the human isomerase in a continuous spectrophotometric assay. This shows the inhibitor suppresses the activity”.
